Assay results reported in patent publication US6395737B1, “Malonic acid derivatives, processes for their preparation, for their use and pharmaceutical compositions containing them” (Aventis Pharma Deutschland GmbH, priority 1999, dated 2002).
Where a name gives a salt, the structure may show the parent alone.

These compounds were tested against factor Xa (Homo sapiens, UniProt P00742) (assay: In vitro Factor Xa assay (Test 1a), chromogenic substrate S-2765). Conditions: Factor Xa inhibitory activity; Ki from IC50 corrected for substrate competition; 0.5 nM enzyme, 140 μM S-2765, 25° C.
factor Xa, sequence (P00742 235-488 limits assumed): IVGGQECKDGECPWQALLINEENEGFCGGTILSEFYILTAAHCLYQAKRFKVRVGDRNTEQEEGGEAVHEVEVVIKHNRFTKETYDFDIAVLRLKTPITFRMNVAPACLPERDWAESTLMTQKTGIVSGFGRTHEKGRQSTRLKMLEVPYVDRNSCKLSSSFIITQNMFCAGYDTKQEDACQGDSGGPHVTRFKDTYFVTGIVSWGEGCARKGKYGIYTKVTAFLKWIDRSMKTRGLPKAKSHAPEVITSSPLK
factor Xa, sequence (P00742 41-179 partner limits assumed): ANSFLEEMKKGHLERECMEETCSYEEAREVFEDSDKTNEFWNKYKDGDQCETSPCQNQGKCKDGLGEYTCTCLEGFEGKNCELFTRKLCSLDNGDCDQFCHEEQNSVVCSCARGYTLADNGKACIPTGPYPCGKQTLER
Format: biochemical
Set-up: purchased Enzyme Research Laboratories, Inc; South Bend, Ind
Text: The ability of a compound of formula I to inhibit factor Xa, thrombin, plasmin, elastase and trypsin may be assessed by determining the concentration of compound of formula I that inhibits enzyme activity by 50% (IC50). Purified enzymes are used in chromogenic assays. To determine the inhibition constant, the IC50 value is corrected for competition with substrate using the formula:
Ki=IC50×(1/{1+((substrate concentration)/substrate Km)})
where Km is the Michaelis-Menten-constant (Y.-C. Chen and W.H. Prusoff, Biochem. Pharmacol. 22: […] (1973), which is incorporated herein by reference).
TBS-PEG buffer (50 mM Tris-Cl, pH 7.8, 200 mM NaCl, 0.05% (w/v) PEG-8000, 0.02% (w/v) NaN3) is used for this assay. The IC50 is determined by combining in appropriate wells of a Costar half-area microtiter plate 25 μl human factor Xa (Enzyme Research Laboratories, Inc.; South Bend, Ind.) in TBS-PEG; 40 μl 10% (v/v) DMSO in TBS-PEG (uninhibited control) or various concentrations of the compound to be tested diluted in 10% (v/v) DMSO in TBS-PEG; and substrate S-2765 (N-benzyloxycarbonyl-D-Arg-Gly-L-Arg-p-nitroanilide; Kabi Pharmacia, Inc.; Franklin Ohio) in TBS-PEG.
The assays are performed by pre-incubating the compound of formula I plus enzyme for 10 min, then the assay is initiated by adding substrate to obtain a final volume of 100 μl. The initial velocity of chromogenic substrate hydrolysis is measured by the change in absorbance at 405 nm using a Bio-tek Instruments kinetic plate reader (Ceres UV900HDi) at 25° C. during the linear portion of the time course (usually 1.5 min after addition of substrate). The concentration of inhibitor that causes a 50% decrease in the rate of substrate hydrolysis is predicted by linear regression after plotting the relative rates of hydrolysis (compared to the uninhibited control) versus the log of the compound of formula I concentration. The enzyme concentration is 0.5 nM and substrate concentration is 140 μM.
CN(C)C(=O)C(Cc1ccc(C(=N)N)cc1)C(=O)N[C@H](C(=O)NCc1ccc(C(=N)N)cc1)C1CCCCC1 (mixture of isomers) [Example 4, 2-(R,S)-(4-Carbamimidoyl-benzyl)-N-[(4-carbamimidoyl-benzylcarbamoyl)-(S)-cyclohexyl-methyl]-N′,N′-dimethyl-malonamide Hydrochloric Acid Salt] gave a Ki of 6 nM. Compound N=C(N)NCCC[C@H](NC(=O)[C@@H](NC(=O)C(Cc1ccc(C(=N)N)cc1)C(=O)N1CCOCC1)c1ccccc1)C(N)=O (mixture of isomers) [Example 23, 2-(S)-{2-(S)-[2-(R,S)-(4-Carbamimidoyl-benzyl)-3-morpholin-4-yl-3-oxo-propionyl-amino]-2-phenyl-acetylamino}-5-guanidino-pentanoic acid amide trifluoroacetic acid salt] has a Ki of 13 nM. CC(C)(C)[C@H](NC(=O)C(Cc1ccc(C(=N)N)cc1)C(=O)N1CCOCC1)C(=O)N[C@@H](CCCNC(=N)N)C(N)=O (mixture of isomers) [Example 40, 2-(S)-{2-(S)-[2-(R,S)-(4-Carbamimidoyl-benzyl)-3-morpholin-4-yl-3-oxo-propionyl-amino]-3,3-dimethyl-butyrylamino}-5-guanidino-pentanoic acid amide trifluoroacetic acid salt] gave a Ki of 500 nM. Compound N=C(N)NCCC[C@H](NC(=O)[C@@H](NC(=O)C(Cc1ccc(C(=N)N)cc1)C(=O)N1CCOCC1)C1CCCCC1)C(N)=O (mixture of isomers) [Example 41, 2-(S)-{2-(S)-[2-(R,S)-(4-Carbamimidoyl-benzyl)-3-morpholin-4-yl-3-oxo-propionyl-amino]-2-cyclohexyl-acetylamino}-5-guanidino-pentanoic acid amide trifluoroacetic acid salt] has a Ki of 6.2 nM. Work on N=C(N)NCCC[C@H](NC(=O)[C@H](Cc1ccccc1)NC(=O)C(Cc1ccc(C(=N)N)cc1)C(=O)N1CCOCC1)C(N)=O (mixture of isomers) [Example 43, 2-(S)-{2-(S)-[2-(R,S)-(4-Carbamimidoyl-benzyl)-3-morpholin-4-yl-3-oxo-propionyl-amino]-3-phenyl-propionylamino}-5-guanidino-pentanoic acid amide trisfluoroacetic acid salt] yielded a Ki of 190 nM. CN(C)C(=O)C(Cc1ccc(C(=N)N)cc1)C(=O)N[C@H](C(=O)N[C@@H](CCCNC(=N)N)C(=O)N1CCN(S(=O)(=O)c2ccc3ccc(Cl)cc3c2)CC1)C1CCCCC1 (mixture of isomers) [Example 45, 2-(R,S)-(4-Carbamimidoyl-benzyl)-N-({1-(S)-[4-(7-chloro-naphthalene-2-sulfonyl)-piperazine-1-carbonyl]-4-guanidino-butylcarbamoyl}-(S)-cyclohexyl-methyl)-N′,N′dimethyl-malonamide hydrochloric acid salt] was tested, and the Ki was 12 nM. For CN(C)C(=O)C(Cc1ccc(C(=N)N)cc1)C(=O)N[C@H](C(=O)NCC1CCNCC1)C1CCCCC1 (mixture of isomers) [Example 47, 2-(R,S)-(4-Carbamimidoyl-benzyl)-N-{(S)-cyclohexyl-[(piperidin-4-ylmethyl)-carbamoyl]-methyl}-N′,N′-dimethyl-malonamide hydrochloric acid salt], the Ki was 460 nM. Work on CN(C)C(=O)C(Cc1ccc(C(=N)N)cc1)C(=O)N[C@H](C(=O)NCCc1ccc(Cl)c(Cl)c1)C1CCCCC1 (mixture of isomers) [Example 59, 2-(R,S)-(4-Carbamimidoyl-benzyl)-N-{(S)-cyclohexyl-[2-(3,4-dichloro-phenyl)-ethylcarbamoyl]-methyl}-N′,N′-dimethyl-malonamide acetic acid salt] yielded a Ki of 5230 nM. For CN(C)C(=O)C(Cc1ccc(C(=N)N)cc1)C(=O)N[C@H](C(=O)NC(Cc1ccc(C(=N)N)cc1)C(N)=O)C1CCCCC1 (mixture of isomers) [Example 87, 2-(R,S)-(4-Carbamimidoyl-benzyl)-N-{(S)-[2-(4-carbamimidoyl-phenyl)-1-carbamoyl-ethylcarbamoyl]-cyclohexyl-methyl}N′,N′-dimethyl-malonamide acetic acid salt], the Ki was 170 nM. Compound CN(C)C(=O)C(Cc1ccc(C(=N)N)cc1)C(=O)N[C@H](C(=O)NCCCCNC(=N)N)C1CCCCC1 (mixture of isomers) [Example 88, 2-(R,S)-(4-Carbamimidoyl-benzyl)-N-[(S)-cyclohexyl-(4-guanidino-butyl-carbamoyl)-methyl]-N′,N′-dimethyl-malonamide sulfuric acid salt] has a Ki of 54 nM. Work on CN(C)C(=O)C(Cc1ccc(C(=N)N)cc1)C(=O)N[C@H](C(=O)NC(C(=O)N1CCCC1)c1ccc(NC(=N)N)cc1)C1CCCCC1 (mixture of isomers) [Example 96, 2-(R,S)-(4-Carbamimidoyl-benzyl)-N-{(S)-cyclohexyl-[1-(4-guanidino-phenyl)-2-oxo-2-pyrrolidin-1-yl-ethylcarbamoyl]-methyl}-N′,N′-dimethyl-malonamide hydrochloric acid salt] yielded a Ki of 960 nM. N=C(N)NCCCC(NC(=O)C(NC(=O)C(Cc1ccc(C(=N)N)cc1)C(=O)N1CCCCC1)C1CCCCC1)C(N)=O (single isomer, unassigned; less polar) [Example 27] was tested, and the Ki was 3.5 nM. In the case of N=C(N)NCCC[C@H](NC(=O)[C@@H](NC(=O)C(Cc1ccc(C(=N)N)cc1)C(=O)N1CCCC1C(=O)O)C1CCCCC1)C(N)=O (single isomer, unassigned; less polar) [Example 35], the Ki is reported as 84 nM. N=C(N)c1ccc(CNC(=O)[C@@H](NC(=O)C(Cc2ccc(C(=N)N)cc2)C(=O)NCc2ccccc2)C2CCCCC2)cc1 (single isomer, unassigned; less polar) [Example 101] showed a Ki of 37 nM. For CN(Cc1ccccc1)C(=O)[C@@H](Cc1ccc(C(=N)N)cc1)C(=O)N[C@H](C(=O)NCC1CCN(C(=N)N)CC1)C1CCCCC1 (single isomer, unassigned; less polar) [Example 112], the Ki was 1 nM. CCC(=N)N1CCC(CNC(=O)C(NC(=O)C(Cc2ccc(C(=N)N)cc2)C(=O)N(C)Cc2ccccc2)C2CCCCC2)CC1 (single isomer, unassigned; less polar) [Example 126] was tested, and the Ki was 35 nM. Work on N=C(N)NCCCC(NC(=O)C(NC(=O)C(Cc1ccc(C(=N)N)cc1)C(=O)N1CCCCC1)C1CCCCC1)C(N)=O (single isomer, unassigned; more polar) [Example 28] yielded a Ki of 2000 nM. For CCOC(=O)C(Cc1cccc2ccccc12)NC(=O)[C@@H](NC(=O)C(Cc1ccc(C(=N)N)cc1)C(=O)N(C)Cc1ccccc1)C1CCCCC1 (single isomer, unassigned; more polar) [Example 107], the Ki was 2760 nM. CCC(=N)N1CCC(CNC(=O)C(NC(=O)C(Cc2ccc(C(=N)N)cc2)C(=O)N(C)Cc2ccccc2)C2CCCCC2)CC1 (single isomer, unassigned; more polar) [Example 125] was tested, and the Ki was 6 nM. CCCC[C@H](NC(=O)C(Cc1ccc(C(=N)N)cc1)C(=O)N1CCOCC1)C(=O)N[C@@H](CCCNC(=N)N)C(N)=O (stereo partly drawn) [Example 16, 2-(S)-[2-(R,S)-(4-Carbamimidoyl-benzyl)-3-morpholin-4-yl-3-oxo-propionyl-amino]-hexanoic acid(1-(S)-carbamoyl-4-guanidino-butyl)-amide trifluoroacetic acid salt] showed a Ki of 26 nM. In the case of CN(C)C(=O)C(Cc1ccc(C(=N)N)cc1)C(=O)N[C@H](C(=O)NCc1cccc(CN)c1)C1CCCCC1 (stereo partly drawn) [Example 63, N-[((S)-3-Aminomethyl-benzylcarbamoyl)-cyclohexyl-methyl]-2-(R,S)-(4-carbamimidoyl-benzyl)-N′,N′-dimethyl-malonamide trifluoroacetic acid salt], the Ki is reported as 2360 nM. CC(=O)NCc1cccc(CNC(=O)[C@@H](NC(=O)C(Cc2ccc(C(=N)N)cc2)C(=O)N(C)C)C2CCCCC2)c1 (stereo partly drawn) [Example 67, N-{[(S)-3-(Acetylamino-methyl)-benzylcarbamoyl]-cyclohexyl-methyl}-2-(R,S)-(4-carbamimidoyl-benzyl)-N′,N′-dimethyl-malonamide trifluoroacetic acid salt] was tested, and the Ki was 260 nM. CN(C)C(=O)C(Cc1ccc(C(=N)N)cc1)C(=O)NC(C(=O)NCc1cccc(C(N)=O)c1)C1CCCCC1 [Example 69, 2-(R,S)-(4-Carbamimidoyl-benzyl)-N-[((S)-3-carbamoyl-benzylcarbamoyl)-cyclohexyl-methyl]-N′,N′-dimethyl-malonamide hydrochloric acid salt] was tested, and the Ki was 780 nM. In the case of CN(C)C(=O)[C@@H](Cc1ccc(C(=N)N)cc1)C(=O)N[C@H](C(=O)NCC1CCN(C(=N)N)CC1)C1CCCCC1 [Example 113, 2-(S)-(4-Carbamimidoyl-benzyl)-N-{(S)-[(1-carbamimidoyl-piperidin-4-ylmethyl)-carbamoyl]-cyclohexyl-methyl}-N′,N′-dimethyl-malonamide hydrochloric acid salt, less polar diastereomer], the Ki is reported as 3 nM.
